ChEMBL document CHEMBL1150342, “Novel 3-carboxamide-coumarins as potent and selective FXIIa inhibitors” (J Med Chem, 2008)
The source made the active and inactive calls. The calls are words filed in the database; no cut-off is given here. Non-standard residues stand in square brackets, D forms with d. Residues, ends and D or L forms follow the SMILES beside them. *: point of attachment. CH2Cl = ClC*

Legend:
Coagulation factor XII = target: T1, Coagulation factor XII (Homo sapiens, UniProt P00748); test: Inhibition of human factor 12a
T1 sequence (P00748 whole entry): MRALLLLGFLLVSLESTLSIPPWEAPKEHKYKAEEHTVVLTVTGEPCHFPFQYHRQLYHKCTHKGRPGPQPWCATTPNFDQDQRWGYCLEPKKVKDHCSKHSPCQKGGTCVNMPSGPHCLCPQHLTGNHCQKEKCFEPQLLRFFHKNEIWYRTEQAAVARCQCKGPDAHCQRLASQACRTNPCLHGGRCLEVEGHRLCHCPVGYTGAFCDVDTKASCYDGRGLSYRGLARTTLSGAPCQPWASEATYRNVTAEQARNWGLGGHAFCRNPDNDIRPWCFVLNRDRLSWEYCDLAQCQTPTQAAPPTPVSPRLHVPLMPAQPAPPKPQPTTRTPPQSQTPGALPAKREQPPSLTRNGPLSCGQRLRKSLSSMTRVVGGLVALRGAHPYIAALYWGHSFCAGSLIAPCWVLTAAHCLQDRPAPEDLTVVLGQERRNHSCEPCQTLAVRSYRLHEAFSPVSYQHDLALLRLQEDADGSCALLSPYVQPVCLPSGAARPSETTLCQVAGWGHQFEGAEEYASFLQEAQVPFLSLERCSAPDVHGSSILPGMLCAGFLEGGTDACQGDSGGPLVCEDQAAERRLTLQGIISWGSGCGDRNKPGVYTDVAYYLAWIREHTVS

Prothrombin [1] = target: T2, Prothrombin (Homo sapiens, UniProt P00734); test: Inhibition of human thrombin
Coagulation factor X [2] = target: T3, Coagulation factor X (Homo sapiens, UniProt P00742); test: Inhibition of human factor 10a
T3 sequence (P00742 41-179 limits assumed): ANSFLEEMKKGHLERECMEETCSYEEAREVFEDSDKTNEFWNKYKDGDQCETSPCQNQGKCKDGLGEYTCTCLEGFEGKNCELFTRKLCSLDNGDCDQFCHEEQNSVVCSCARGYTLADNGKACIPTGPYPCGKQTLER
T3 sequence (P00742 235-488 limits assumed): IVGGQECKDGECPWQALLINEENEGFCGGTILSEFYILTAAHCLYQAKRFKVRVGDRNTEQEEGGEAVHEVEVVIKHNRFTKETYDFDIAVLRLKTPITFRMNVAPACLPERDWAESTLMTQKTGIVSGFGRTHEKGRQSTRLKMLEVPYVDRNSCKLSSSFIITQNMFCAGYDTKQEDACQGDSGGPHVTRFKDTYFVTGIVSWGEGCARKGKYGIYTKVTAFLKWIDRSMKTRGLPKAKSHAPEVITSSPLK

[3] = target: Coagulation factor VII/tissue factor (Homo sapiens, UniProt P08709); test: Inhibition of human tissue factor/factor 7a; type: protein-complex assay
Coagulation factor VII/tissue factor, sequence (P08709 61-212 limits assumed): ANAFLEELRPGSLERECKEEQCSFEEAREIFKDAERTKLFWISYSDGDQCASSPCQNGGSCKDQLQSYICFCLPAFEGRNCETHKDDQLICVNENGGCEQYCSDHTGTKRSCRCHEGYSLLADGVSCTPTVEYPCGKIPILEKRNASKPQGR
Coagulation factor VII/tissue factor, sequence (P08709 213-466 limits assumed): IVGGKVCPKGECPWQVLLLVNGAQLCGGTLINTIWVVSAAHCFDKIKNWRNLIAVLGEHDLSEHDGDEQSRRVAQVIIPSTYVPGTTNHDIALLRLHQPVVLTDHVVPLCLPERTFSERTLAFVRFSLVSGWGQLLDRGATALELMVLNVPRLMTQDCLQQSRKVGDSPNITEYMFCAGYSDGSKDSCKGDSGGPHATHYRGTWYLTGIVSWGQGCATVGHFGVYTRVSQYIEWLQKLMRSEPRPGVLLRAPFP
Coagulation factor VII/tissue factor, sequence (P13726 33-295 partner limits assumed): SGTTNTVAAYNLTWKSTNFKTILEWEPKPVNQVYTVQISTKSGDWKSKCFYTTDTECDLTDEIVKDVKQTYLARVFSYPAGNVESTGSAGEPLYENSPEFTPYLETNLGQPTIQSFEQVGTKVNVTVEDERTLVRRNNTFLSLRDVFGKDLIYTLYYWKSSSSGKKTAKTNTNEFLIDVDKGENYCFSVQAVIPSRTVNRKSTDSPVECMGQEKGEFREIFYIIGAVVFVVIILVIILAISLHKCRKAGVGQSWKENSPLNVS

Plasma kallikrein [4] = target: T4, Plasma kallikrein (Homo sapiens, UniProt P03952); test: Inhibition of human kallikrein
T4 sequence (P03952 20-390 limits assumed): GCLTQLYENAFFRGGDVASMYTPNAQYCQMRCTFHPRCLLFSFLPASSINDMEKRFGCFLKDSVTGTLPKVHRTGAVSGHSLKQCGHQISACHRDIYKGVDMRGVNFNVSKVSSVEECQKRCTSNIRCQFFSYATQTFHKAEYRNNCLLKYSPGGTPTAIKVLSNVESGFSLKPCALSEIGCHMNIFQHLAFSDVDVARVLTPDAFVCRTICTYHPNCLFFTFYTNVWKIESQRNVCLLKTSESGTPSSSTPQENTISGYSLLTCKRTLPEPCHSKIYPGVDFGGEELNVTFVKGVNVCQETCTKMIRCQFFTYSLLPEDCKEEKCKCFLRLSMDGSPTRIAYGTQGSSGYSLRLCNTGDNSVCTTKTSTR
T4 sequence (P03952 391-638 limits assumed): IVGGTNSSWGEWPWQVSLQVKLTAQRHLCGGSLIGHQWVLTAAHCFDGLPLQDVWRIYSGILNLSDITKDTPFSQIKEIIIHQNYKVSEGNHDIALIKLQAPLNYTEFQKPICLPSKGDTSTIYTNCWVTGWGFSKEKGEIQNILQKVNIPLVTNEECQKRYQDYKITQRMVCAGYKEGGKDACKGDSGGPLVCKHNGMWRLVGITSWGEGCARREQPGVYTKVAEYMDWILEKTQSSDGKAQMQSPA

Prothrombin [5] = target: T2, Prothrombin; test: Inhibition of human thrombin at 50 uM
Coagulation factor X [6] = target: T3, Coagulation factor X; test: Inhibition of human factor 10a at 50 uM
[7] = target: Coagulation factor VII/tissue factor (Homo sapiens) (UniProt P08709+P13726); test: Inhibition of human tissue factor/factor 7a at 50 uM
Plasma kallikrein [8] = target: T4, Plasma kallikrein; test: Inhibition of human kallikrein at 50 uM
[9] = target: T5, Coagulation factor XII (Homo sapiens) (UniProt P00748); test: Inhibition of human factor 12a at 50 uM
T5 sequence (whole entry): T1 sequence (P00748 whole entry)

[10] = target: T5, Coagulation factor XII (Homo sapiens); test: Inhibition of human factor 12a assessed as residual activity at 49.5 uM; details: TDE = time-dependent effect

SMILES	IC50 (Coagulation factor XII)	IC50 (Prothrombin [1])	IC50 (Coagulation factor X [2])	IC50 [3]	IC50 (Plasma kallikrein [4])	Activity (Prothrombin [5])	Activity (Coagulation factor X [6])	Activity [7]	Activity (Plasma kallikrein [8])	Activity [9]	Activity (Prothrombin [1])	Activity [10]
O=C(Nc1ccccc1)c1cc2cc([N+](=O)[O-])ccc2oc1=O	22 µM	–	–	–	–	inactive	inactive	inactive	inactive	–	–	–
COc1cc(Br)cc2cc(C(=O)Nc3ccccc3)c(=O)oc12	> 50 µM	> 50 µM	–	> 50 µM	–	–	inactive	–	inactive	–	–	–
O=C(Nc1ccccc1)c1cc2ccccc2oc1=O	42 µM	–	–	–	–	inactive	inactive	inactive	inactive	–	–	–
Cc1ccc2oc(=O)c(C(=O)NCc3cccc4ccccc34)cc2c1	15 µM	> 50 µM	–	–	–	–	inactive	inactive	inactive	–	–	–
Cc1ccc2oc(=O)c(C(=O)Nc3ccccc3Cl)cc2c1	30 µM	> 50 µM	–	–	–	–	inactive	inactive	inactive	–	–	–
Cc1ccc2oc(=O)c(C(=O)NC(C)C)cc2c1	–	–	–	> 50 µM	> 50 µM	inactive	inactive	–	–	inactive	–	–
Cc1ccc(NC(=O)c2cc3cc(C)ccc3oc2=O)cc1	20 µM	> 50 µM	–	> 50 µM	–	–	inactive	–	inactive	–	–	–
Cc1ccc2oc(=O)c(C(=O)NCCc3ccccc3)cc2c1	> 50 µM	–	–	–	–	inactive	inactive	inactive	inactive	–	–	–
Cc1ccc2oc(=O)c(C(=O)Nc3cccc(Cl)c3)cc2c1	31 µM	–	–	–	–	inactive	inactive	inactive	inactive	–	–	–
Cc1cccc(NC(=O)c2cc3cc(Cl)cc(Br)c3oc2=O)c1	10 µM	> 50 µM	–	> 50 µM	–	–	inactive	–	inactive	–	–	–
Cc1ccc2oc(=O)c(C(=O)Nc3ccccc3)cc2c1	23 µM	> 50 µM	–	–	> 50 µM	–	inactive	inactive	–	–	–	–
O=C(Nc1ccccc1)c1cc2ccc(O)cc2oc1=O	–	> 50 µM	> 50 µM	–	> 50 µM	–	–	inactive	–	inactive	–	–
NC(N)=NCCC[C@H](NC(=O)[C@H](Cc1ccccc1)NC(=O)[C@H]1CCCN1)C(=O)CCl (H-[dP]-Phe-Arg-CH2Cl)	0.18 µM	2.5 µM	1.9 µM	1.5 µM	0.031 µM	–	–	–	–	–	–	–
O=C(Nc1ccccc1)c1cc2cc(Br)ccc2oc1=O	24 µM	–	–	–	–	inactive	inactive	inactive	inactive	–	–	–
Cc1ccc2oc(=O)c(C(=O)NC3CCCCCCCCCCC3)cc2c1	33 µM	–	–	–	–	inactive	inactive	inactive	inactive	–	–	–

Now from value to molecule:

IC50 (Coagulation factor XII)	IC50 (Prothrombin [1])	IC50 (Coagulation factor X [2])	IC50 [3]	IC50 (Plasma kallikrein [4])	Activity (Prothrombin [5])	Activity (Coagulation factor X [6])	Activity [7]	Activity (Plasma kallikrein [8])	Activity [9]	Activity (Prothrombin [1])	Activity [10]	SMILES
4.3 µM	> 50 µM	> 50 µM	> 50 µM	> 50 µM	–	–	–	–	–	–	–	Cc1cc(C)cc(NC(=O)c2cc3cc(Cl)cc(Cl)c3oc2=O)c1
19 µM	–	–	–	> 50 µM	inactive	inactive	inactive	–	–	–	–	O=C(Nc1ccccc1)c1cc2cc(Cl)cc(Cl)c2oc1=O
> 50 µM	7 µM	> 50 µM	–	–	–	–	inactive	inactive	–	–	–	O=C(Oc1ccccc1)c1cc2cc(CCl)ccc2oc1=O
–	> 50 µM	> 50 µM	–	> 50 µM	–	–	inactive	–	inactive	–	–	COc1ccc2cc(C(=O)Nc3ccccc3)c(=O)oc2c1
–	> 50 µM	> 50 µM	> 50 µM	> 50 µM	–	–	–	–	inactive	–	–	O=C(Nc1ccccc1)c1cc2c(ccc3ccccc32)oc1=O
29 µM	–	–	–	–	inactive	inactive	inactive	inactive	–	–	–	Cc1ccc2oc(=O)c(C(=O)NC34CC5CC(CC(C5)C3)C4)cc2c1
34 µM	> 50 µM	–	–	–	–	inactive	inactive	inactive	–	–	–	Cc1ccc2oc(=O)c(C(=O)Nc3ccc(Cl)cc3)cc2c1
25 µM	–	–	–	–	inactive	inactive	inactive	inactive	–	–	–	Cc1cccc(NC(=O)c2cc3cc(Cl)cc(Cl)c3oc2=O)c1
32 µM	> 50 µM	–	–	–	–	inactive	inactive	inactive	–	–	–	Cc1ccc2oc(=O)c(C(=O)Nc3ccccc3C)cc2c1
17 µM	> 50 µM	> 50 µM	–	–	–	–	inactive	inactive	–	–	–	O=C(Nc1ccccc1)c1cc2cc(CCl)ccc2oc1=O
–	–	–	–	–	inactive	inactive	inactive	inactive	inactive	–	–	Cc1ccc2oc(=O)c(C(=O)Oc3ccccc3)cc2c1
–	–	–	–	–	inactive	inactive	inactive	inactive	inactive	–	–	Cc1ccc2oc(=O)c(C(=O)NC3CCCCC3)cc2c1
–	–	–	> 50 µM	> 50 µM	inactive	inactive	–	–	inactive	–	–	CCN(CC)c1ccc2cc(C(=O)Nc3ccccc3)c(=O)oc2c1
–	–	> 50 µM	–	> 50 µM	–	–	inactive	–	inactive	inactive	–	COc1cccc2cc(C(=O)Nc3ccccc3)c(=O)oc12
9.8 µM	> 50 µM	–	–	–	–	inactive	inactive	inactive	–	–	–	Cc1cc(C)cc(NC(=O)c2cc3cc(C)ccc3oc2=O)c1
> 50 µM	–	–	–	–	inactive	inactive	inactive	inactive	–	–	–	Cc1ccc2oc(=O)c(C(=O)NCc3ccccc3)cc2c1
–	–	–	–	–	inactive	inactive	inactive	inactive	inactive	–	–	O=C(Oc1ccccc1)c1cc2ccccc2oc1=O
10 µM	> 50 µM	–	–	–	–	inactive	inactive	inactive	–	–	–	Cc1cccc(NC(=O)c2cc3cc(C)ccc3oc2=O)c1
4.4 µM	–	–	–	–	inactive	inactive	inactive	inactive	–	–	tde	O=C(Nc1ccccc1)c1cc2cc(Cl)cc(Br)c2oc1=O
8.3 µM	–	–	–	–	inactive	inactive	inactive	inactive	–	–	–	Cc1ccc2oc(=O)c(C(=O)Nc3cnc4ccccc4c3)cc2c1
32 µM	> 50 µM	> 50 µM	> 50 µM	> 50 µM	–	–	–	–	–	–	–	Cc1cc(C)cc(NC(=O)c2cc3cc(Cl)cc(Br)c3oc2=O)c1
